The values that follow come from PMC11277192 (International Journal of Molecular Sciences, 2024).

The subject of one test is mice. The arrangement: method as in PMID 31889124. Particulars: doses 2.5 to 10 mg/kg; cited from earlier work.
A further test addresses T1, CB1 receptor (Homo sapiens, UniProt P21554).
T1 construct: host or cells: CHO-K1
Kind of test: CB1 antagonist cAMP assay (HitHunter cAMP XS+), CP55,940 challenge. Type of test: cell-based. Particulars: for Emax: CHO-K1, read-out: CB1 antagonist activity, % of the maximum response of AM251; for Concentration at which CB1 antagonist activity above the baseline appeared: CP55,940 1 nM, CHO-K1.

A further test has as its target T2, 5HT-1A receptor (Homo sapiens, UniProt P08908).
T2 sequence (P08908 1-422): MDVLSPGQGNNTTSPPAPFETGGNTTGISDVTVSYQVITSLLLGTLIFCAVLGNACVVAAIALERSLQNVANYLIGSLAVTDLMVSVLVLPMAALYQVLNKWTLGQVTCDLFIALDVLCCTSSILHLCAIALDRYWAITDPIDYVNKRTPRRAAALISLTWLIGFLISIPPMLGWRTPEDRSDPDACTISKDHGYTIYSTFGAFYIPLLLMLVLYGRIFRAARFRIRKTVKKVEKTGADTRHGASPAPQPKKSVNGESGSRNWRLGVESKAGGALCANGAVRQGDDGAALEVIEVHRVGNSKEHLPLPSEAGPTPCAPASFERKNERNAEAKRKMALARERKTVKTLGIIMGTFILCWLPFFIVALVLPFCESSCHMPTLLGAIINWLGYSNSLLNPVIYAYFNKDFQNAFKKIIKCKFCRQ
The experiment in a line: 5HT-1A agonist PathHunter β-arrestin assay. Also noted: Emax: dose or concentration left out as unconfirmed. Particulars: for Emax: CHO-K1, read-out: 5HT-1A agonism, % of the maximum response of serotonin.

Test [1] has as its target T3, CB2 receptor (Homo sapiens, UniProt P34972).
T3 construct: host or cells: CHO-K1 (from the C2 catalogue suffix and 'same protocol' as CB1)
The experiment in a line: Radioligand binding assay, displacement of [3H]-CP55940 at CB2. To be noted: 1 µM compound; 100% = 1 µM WIN55212-2. A general note: Displacement assays read how much labelled ligand stays bound in the presence of the test substance.

The target in test [2] is T4, mu-opioid receptor (MOR, OPRM1) (Homo sapiens, UniProt P35372).
T4 construct: host or cells: U2OS (methods); the results text b24 says CHO-K1
T4 sequence (P35372 whole entry): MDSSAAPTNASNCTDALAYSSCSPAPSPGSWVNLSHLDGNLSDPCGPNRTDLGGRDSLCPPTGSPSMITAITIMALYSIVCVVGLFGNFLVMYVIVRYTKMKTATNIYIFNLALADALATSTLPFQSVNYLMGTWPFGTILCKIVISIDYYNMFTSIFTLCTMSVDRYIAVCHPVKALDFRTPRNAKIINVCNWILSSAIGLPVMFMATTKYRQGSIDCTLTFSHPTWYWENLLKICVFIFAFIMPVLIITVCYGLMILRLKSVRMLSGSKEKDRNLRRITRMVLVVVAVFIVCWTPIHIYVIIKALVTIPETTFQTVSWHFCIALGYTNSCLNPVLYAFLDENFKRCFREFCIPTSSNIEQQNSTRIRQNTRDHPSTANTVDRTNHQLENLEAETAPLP
Type of test: cell-based. To be noted: for Increase in the met-enkephalin internalization signal: 10 µM compound, 30 min pre-treatment, then 1 µM met-enkephalin.

The target in test [3] is T3, CB2 receptor. Kind of test: CB2 antagonist cAMP assay (HitHunter cAMP XS+), CP55,940 challenge. Particulars: for Emax: read-out: CB2 antagonist activity, % of the maximum effect of SR144528, highest tested concentration (12 µM), CP55,940 1 nM. Type of test: cell-based.
A further test concerns the target T5, dopamine D2S receptor (Homo sapiens, UniProt P14416).
T5 construct: host or cells: CHO-K1
The experiment in a line: D2S agonist HitHunter cAMP XS+ assay. Type of test: cell-based. The arrangement: Emax: dose or concentration left out as unconfirmed.

In a further test the test system is MOR. The arrangement: method as in PMID 35412886. Particulars: 10 µM; cited from earlier work.

T1 sequence (P21554 whole entry): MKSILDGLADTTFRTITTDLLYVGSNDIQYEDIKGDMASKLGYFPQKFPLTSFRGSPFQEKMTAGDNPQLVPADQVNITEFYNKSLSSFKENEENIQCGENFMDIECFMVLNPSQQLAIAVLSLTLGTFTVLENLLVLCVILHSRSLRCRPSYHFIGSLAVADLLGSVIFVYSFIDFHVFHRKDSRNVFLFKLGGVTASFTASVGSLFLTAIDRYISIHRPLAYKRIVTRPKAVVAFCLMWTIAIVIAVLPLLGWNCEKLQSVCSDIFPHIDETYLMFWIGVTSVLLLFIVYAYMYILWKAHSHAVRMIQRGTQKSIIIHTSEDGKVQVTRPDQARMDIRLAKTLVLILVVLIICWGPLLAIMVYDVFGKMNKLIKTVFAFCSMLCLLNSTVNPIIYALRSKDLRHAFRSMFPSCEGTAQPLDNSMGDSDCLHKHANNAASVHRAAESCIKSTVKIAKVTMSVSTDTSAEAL
T3 sequence (P34972 whole entry): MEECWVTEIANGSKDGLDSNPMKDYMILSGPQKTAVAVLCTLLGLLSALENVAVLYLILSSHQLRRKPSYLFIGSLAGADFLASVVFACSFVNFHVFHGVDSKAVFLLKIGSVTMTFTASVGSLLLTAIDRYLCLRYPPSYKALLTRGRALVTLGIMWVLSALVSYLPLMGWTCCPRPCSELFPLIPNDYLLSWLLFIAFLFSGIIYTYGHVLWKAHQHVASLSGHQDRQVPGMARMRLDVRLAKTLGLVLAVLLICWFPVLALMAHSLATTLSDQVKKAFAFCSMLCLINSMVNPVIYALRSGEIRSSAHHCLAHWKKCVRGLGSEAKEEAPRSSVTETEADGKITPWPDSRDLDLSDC
T5 sequence (P14416 1-414 isoform P14416-2): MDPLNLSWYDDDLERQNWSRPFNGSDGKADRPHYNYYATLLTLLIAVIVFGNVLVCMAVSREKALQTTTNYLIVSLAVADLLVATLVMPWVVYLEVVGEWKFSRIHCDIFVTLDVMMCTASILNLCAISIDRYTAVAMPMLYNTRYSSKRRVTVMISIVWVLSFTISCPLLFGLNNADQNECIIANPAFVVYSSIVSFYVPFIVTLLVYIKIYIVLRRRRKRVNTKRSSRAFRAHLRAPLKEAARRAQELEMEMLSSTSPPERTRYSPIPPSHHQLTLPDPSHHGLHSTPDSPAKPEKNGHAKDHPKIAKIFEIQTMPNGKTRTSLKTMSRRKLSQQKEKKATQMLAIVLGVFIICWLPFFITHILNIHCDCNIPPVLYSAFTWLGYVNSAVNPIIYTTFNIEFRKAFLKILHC

`CCCCCCCc1cc(O)c2c(c1)OC(C)(C)[C@@H]1CCC(C)=C[C@@H]21` [Δ9-THCP, tetrahydrocannabiphorol]: the “In vivo effects in mice” value in the test with mice is “induce THC-like hypomotility, analgesia, and catalepsy”.
A word on the EC50: it is the concentration giving half of the maximal effect. For `C=C(C)[C@@H]1CCC(C)=C[C@H]1c1c(O)cc(CCCCC)cc1O` [CBD, Cannabidiol, reference compound], the Emax on CB1 receptor is around 20%; at 5HT-1A receptor, around 20%; on CB2 receptor [3], around 33%; at dopamine D2S receptor (CHO-K1, read-out: D2S agonist activity, % maximum response of dopamine) it was 10.7%. Further, the “Concentration at which CB1 antagonist activity above the baseline appeared” value at CB1 receptor turned out to be 3 µM. The molecule also registered an EC50 at 5HT-1A receptor above 12 µM. In addition, the “Displacement of radiolabeled CP55940 at the CB2 binding site” value on CB2 receptor [1] is given as “approximately 50%”. Further, the “Increase in the met-enkephalin internalization signal” value in test [2] worked out at 18%.
In the case of `C=C(C)[C@@H]1CCC(C)=C[C@H]1c1c(O)cc(CCCCCCC)cc1O` [CBDP, cannabidiphorol], the Emax was around 20% on CB1 receptor, around 20% on 5HT-1A receptor and around 23% at CB2 receptor [3]. Further, on CB1 receptor, the “Concentration at which CB1 antagonist activity above the baseline appeared” value is on record as 3 µM. Further, the IC50 on CB1 receptor (read-out: CB1 antagonist IC50 (not reached within tested range)) and at CB2 receptor [3] (read-out: CB2 antagonist IC50 (not reached within tested concentrations)) was above 12 µM throughout. The molecule further registered an EC50 on 5HT-1A receptor above 12 µM. In addition, the “Displacement of radiolabeled CP55940 at the CB2 binding site” value on CB2 receptor [1] is reported as “approximately 50%”. For the same molecule, in test [2] (3 µM compound and 1 µM met-enkephalin), the “Met-enkephalin-induced mu-opioid internalization (in words)” value was “significant increase”. The “Increase in the met-enkephalin internalization signal” value in test [2] is given as 37%. Further, the “D2S agonism (in words)” value at dopamine D2S receptor (within the tested concentration range (up to 12 µM)) is reported as “did not show any sign of agonism”.
For the molecule `COc1ccc(C2SCCN2S(=O)(=O)c2ccc(Cl)cc2)cc1Br` (stereo not drawn) [BMS-986122], in the test with MOR, the “Activity of MOR in GTP turnover rate assay” value is listed as 166%.
